{"source": "paper PMC11350846", "about": "“Synthesis of Second-Generation Analogs of Temporin-SHa Peptide Having Broad-Spectrum Antibacterial and Anticancer Effects” (Antibiotics, 2024)", "key": {"[1]": {"experiment": "Circular dichroism, secondary structure (Bestsel)", "format": "physicochemical", "conditions": "CD in 20 mM SDS", "protocol": "Circular dichroism of temporin SHa, [G10a]-SHa and newly synthesised second-generation analogs of [G10a]-SHa in 20 mM SDS are shown in Figure 2. In lipidic environments mimicked by SDS, peptides adopt an alpha helical structure due to their amphipathic nature. This structural feature is important for their antimicrobial activity, allowing for their insertion into bacterial membranes. The hydrophobic region of the peptide interacts with the hydrophobic portion of the lipid while the hydrophilic region remains exposed to the aqueous environment. The percentage of alpha helix, as well as the percentage of other secondary structures, was determined from CD data using Bestsel software (https://bestsel.elte.hu/index.php, (accessed on 22 June 2024)) (Table 3). Temporin-SHa (1) adopted a 49.5% α-helical structure, while its first-generation analog [G10a]-SHa (2) acquired a 82.4% alpha helical structure. The 84.6%, 88.7%, 4.7%, and 53.8% alpha helical structures were acquired for second-generation analogs 3, 4, 5, and 6, respectively.\nThe far-ultraviolet CD spectra were obtained using a JASCO J-810 spectropolarimeter (Jasco, Tokyo, Japan). In addition to this, the quartz cuvette of 10 mm path length was used. The temperature was maintained at 22 °C, and the output of the instrument was calibrated using D-(+)-10-camphorsulfonic acid. The peptides, which were present at a concentration of 1.0 mg/mL, were dissolved completely in 20 mM SDS at a concentration of 15 µM [21]. The instrument was set to record wavelengths ranging from 190 to 260 nm with a bandwidth of 2 nm. Ten consecutive scans (accumulations) were recorded for each spectrum at a rate of 50 nm/min, and the baseline was acquired under the same conditions."}, "[2]": {"system": "human cancer and normal/non-cancerous cells", "format": "cell-based", "conditions": "cancer or normal cells, except breast cancer MCF-7 cells; read-out: IC50, cancer or normal cell proliferation", "protocol": "(§1) The antiproliferative activity of the peptides was evaluated, as previously described using human cancer cell lines (A549 (lung), A2780 (ovary), HepG-2 (liver), MCF-7 (breast), MiaPaCa-2 (pancreas), MNT-1 (skin), and PC-3 (prostate)) and normal human lung fibroblasts (IMR-90) or epithelial cells (BEAS-2B). The cells were cultured in DMEM supplemented with 10% FBS, 1% L-glutamine, and 1% antibiotics at 37 °C in a 5% CO2 incubator. For the antiproliferative assay, cells were seeded in 96-well plates at approximately 3000 cells/well. Twenty-four hours later, cells were treated with increasing concentrations of peptides (1:2 serial dilution from 100 µM to 0 µM) for 48 h. After treatment, the number of viable cells was determined using a resazurin-based assay, and the fluorescence intensity was measured with a microplate reader (Ex 530 nm/Em 590 nm). The IC50 values of the peptides (i.e., the concentrations causing 50% inhibition of cell proliferation) were determined using GraphPad® Prism 7 software. The experiments were performed in triplicate (n = 3). The cytotoxicity of the peptides was also evaluated using confluent/no-dividing cells, as previously described. Briefly, human cells were seeded onto 96-well plates at 20,000 cells/well. When they reached 80–90% confluence (after 24–48 h), cells were treated with escalating concentrations of peptides. After 48h incubation, cell viability was measured using a resazurin assay and CC50 (i.e., the concentrations causing 50% inhibition of cell viability) and determined using GraphPad® Prism 7 software. The experiments were performed in triplicate (n = 3)."}, "human cancer cells": {"system": "human cancer cells", "format": "cell-based", "conditions": "mean of all human cancer cells tested; read-out: IC50, mean over cancer cells", "protocol": "as §1"}}, "note": "Where a SMILES comes first, the peptide text is derived from it. [ ]: non-standard residue; d: D form.", "data": [{"molecule": "CC[C@H](C)[C@H](NC(=O)CNC(=O)[C@H](CO)NC(=O)[C@H](CC(C)C)NC(=O)[C@@H](N)Cc1ccccc1)C(=O)N[C@H](C(=O)NCC(=O)N[C@@H](CCSC)C(=O)N[C@@H](CC(C)C)C(=O)NCC(=O)N[C@@H](CCCCN)C(=O)N[C@@H](CC(C)C)C(=O)N[C@@H](Cc1ccccc1)C(N)=O)C(C)C", "note": "[Temporin-SHa (1), H-Phe^1-Leu^2-Ser^3-Gly^4-IIe^5-Val^6-Gly^7-Met^8-Leu^9-Gly^10-Lys^11-Leu^12-Phe^13-NH2, reference compound] (H-FLSGIVGMLGKLF-NH2)", "values": [{"measurement": "Antiparallel", "setting": "[1]", "result": 0.00, "unit": "%"}, {"measurement": "Helix (alpha helical structure)", "setting": "[1]", "result": 49.5, "unit": "%"}, {"measurement": "Others", "setting": "[1]", "result": 49.80, "unit": "%"}, {"measurement": "Parallel", "setting": "[1]", "result": 0.00, "unit": "%"}, {"measurement": "Turn", "setting": "[1]", "result": 0.70, "unit": "%"}, {"measurement": "IC50", "setting": "[2]", "result": "> 100", "unit": "µM"}]}, {"molecule": "CC[C@H](C)[C@H](NC(=O)CNC(=O)[C@H](CO)NC(=O)[C@H](CC(C)C)NC(=O)[C@@H](N)Cc1ccccc1)C(=O)N[C@H](C(=O)NCC(=O)N[C@@H](CCSC)C(=O)N[C@@H](CC(C)C)C(=O)N[C@H](C)C(=O)N[C@@H](CCCCN)C(=O)N[C@@H](CC(C)C)C(=O)N[C@@H](Cc1ccccc1)C(N)=O)C(C)C", "note": "[[G10a]-SHa (2), H-Phe^1-Leu^2-Ser^3-Gly^4-IIe^5-Val^6-Gly^7-Met^8-Leu^9-D-Ala^10-Lys^11-Leu^12-Phe^13-NH2] (H-FLSGIVGML[dA]KLF-NH2)", "values": [{"measurement": "Antiparallel", "setting": "[1]", "result": 17.60, "unit": "%"}, {"measurement": "Helix (alpha helical structure)", "setting": "[1]", "result": 82.4, "unit": "%"}, {"measurement": "Others", "setting": "[1]", "result": 0.00, "unit": "%"}, {"measurement": "Parallel", "setting": "[1]", "result": 0.00, "unit": "%"}, {"measurement": "Turn", "setting": "[1]", "result": 0.00, "unit": "%"}, {"measurement": "IC50", "setting": "human cancer cells", "result": "18.7 ± 9", "unit": "µM"}]}]}
